Tests used:
[1] = test system: HDM allergen-specific CD4 T cells; assay: Ex vivo human T cell proliferation assay, PBMC of allergic donors cultured with house dust mite extracts (3H-thymidine incorporation); assay type: cell-based; settings: PBMC from HDM-allergic donors, 7 days culture, titrated doses of LHVS; all four donors tested
Experimental: (§1) Reagents. Glycerinated crude allergen extracts of house dust mites (Dermataphagoides pteronyssinus, Dermataphagoides farinae) and ragweed [Ambrosia trifida (giant), Ambrosia artemisiifolia (short)] were purchased from Hollister-Stier Laboratories (Minneapolis, Minn.). Concanavalin A (ConA) was purchased from Calbiochem (La Jolla, Calif.).
(§2) Donors. All allergic donors were prescreened for their specific allergies using RAST tests. The HLA class II haplotypes of these donors were determined using PCR.
(§3) Cell culture. Human peripheral blood mononuclear cells (PBMC) were purified from blood of allergic donors using Ficoll-Hypaque gradient followed by washes with phosphate buffered saline (PBS). PBMC were cultured in triplicate or duplicate at 0.5-1.0×10^6 cells/well with titrated doses of allergen extracts, in the presence or absence of a known cathepsin S inhibitor, LHVS (morpholinurea-leucine-homo-phenylalanine-vinylsulfonephenyl) (Palmer et al. (1995), J. Med. Chem. 38:3193 and Riese et al. (1996), Immunity 4:357). Serial diluted stock solutions of LHVS were first made in 100% DMSO and then diluted 1:15 in 40% Hydroxypropynyl cyclodextrin (HPCD). Three microliters of LHVS in HPCD was added into PBMC cultures (200 μL/well). […] Eighteen hours later, cells were harvested using a Filtermate Harvester (Packard) and counted for ^3H-TdR incorporation on Topcount (Packard). […]

[2] = test system: ragweed allergen-specific CD4 T cells; assay: Ex vivo human T cell proliferation assay, PBMC of allergic donors cultured with ragweed extracts (3H-thymidine incorporation); assay type: cell-based; settings: PBMC from ragweed-allergic donors, 7 days culture, titrated doses of LHVS; two donors tested
Experimental: as §1, §2, §3

[3] = test system: T cells stimulated with ConA, a pan-T cell mitogen; assay: T cell proliferative responses induced by ConA (specificity control); assay type: cell-based, human; settings: PBMC from allergic donors
Source text: as §1
Cell culture. Human peripheral blood mononuclear cells (PBMC) were purified from blood of allergic donors using Ficoll-Hypaque gradient followed by washes with phosphate buffered saline (PBS). PBMC were cultured in triplicate or duplicate at 0.5-1.0×10^6 cells/well with titrated doses of allergen extracts, in the presence or absence of a known cathepsin S inhibitor, LHVS (morpholinurea-leucine-homo-phenylalanine-vinylsulfonephenyl) (Palmer et al. (1995), J. Med. Chem. 38:3193 and Riese et al. (1996), Immunity 4:357). Serial diluted stock solutions of LHVS were first made in 100% DMSO and then diluted 1:15 in 40% Hydroxypropynyl cyclodextrin (HPCD). Three microliters of LHVS in HPCD was added into PBMC cultures (200 μL/well). After 6 days of culture, 1 μCi/well of ^3H-thymidine (TdR) was added. Eighteen hours later, cells were harvested using a Filtermate Harvester (Packard) and counted for ^3H-TdR incorporation on Topcount (Packard). […]

[4] = test system: cathepsin S (degradation of invariant chain Ii); assay: Monitoring cathepsin S inhibition in human blood: p10Ii fragment of invariant chain in PBMC by Western blot; assay type: cell-based; settings: PBMC from human blood, incubation for 24 h, SDS-PAGE / Western blot
Experimental: The effect of in vivo administration of cathepsin S inhibitors, in a clinical trial setting, can be monitored by measuring accumulation of an intermediate degradation product of invariant chain (Ii), i.e. the p10Ii fragment, in blood of dosed subjects. After administration of a cathepsin inhibitor for a certain period of time, for example, 0.01 to 50 mg/kg/day to result in a blood concentration of preferably 1 nM-10 μM for 16-30 h, blood is drawn and white blood cells are purified, e.g. either by lysis of red blood cells or by a Ficoll-Hypaque gradient centrifugation. Whole cell lysates of WBC are then made and analyzed by either a Western blot assay or an ELISA assay. For the Western blot assay, cell lysates are first resolved on SDS-PAGE gels. After transferring to nitrocellulose membranes, Ii and its intermediate degradation products, including the p10Ii, can be detected using a mouse mAb against Ii, e.g. Pin1.1, or rabbit polyclonal antibodies or a mouse monoclonal antibody specific for the p10Ii fragment or against the entire p10Ii fragment. For ELISA assay, a pair of antibodies against Ii, including Pin1.1, and a rabbit polyclonal antibody against C-terminal of p10Ii, can be used. The same assay can also be applied to monitor the effect of cathepsin S inhibitors in vivo in animal studies, for example in monkeys, dogs, pigs, rabbits, guinea pigs, and rodents. […]

CC(C)C[C@H](NC(=O)N1CCOCC1)C(=O)N[C@H](/C=C/S(=O)(=O)c1ccccc1)CCc1ccccc1 [LHVS, 4-morpholinecarboxamide, N-[(1S)-3-methyl-1-[[[(1S,2E)-1-(2-phenylethyl)-3-(phenylsulfonyl)-2-propenyl]amino]carbonyl]butyl]-]
T cell proliferation induced by house dust mite extracts (Der p, Der f) [1]: strongly inhibited | T cell proliferation induced by ragweed extracts (short and giant) [2]: strongly inhibited | T cell proliferative responses induced by ConA [3]: not affected | p10Ii fragment (block in the degradation of Ii) [4]: the p10Ii fragment was seen

From patent US6369032B1, “Method for treating allergies” (Ortho-McNeil Pharmaceutical, Inc., priority 2000, dated 2002)
